Assay results taken from patent publication US20260097036A1 (Kadmon Corporation, LLC, priority 2022, published 2026).
Values joined by “and” are separate entries in the source; they are usually repeats but may differ in a detail not shown here. Equal entries are not always repeated. Where two headings read alike, the source gives them in different places.

What was measured:
[1] = Part 2 relative bioavailability and food effect, plasma PK; assay type: in vivo, human; conditions: for Tlag / Tmax / AUC (0-24) / AUC (0-last) / Cmax / Lambda-z / T1/2 / median Tmax / AUC % extrap / half-life / AUC(0-inf) / AUC(0-t): plasma; for peak (Cmax) and total exposure (AUC), liquid formulation vs tablet: both in the fed state, GMR comparison; for food effect on exposure, fed vs fasted: oral liquid formulation
Description: Subjects underwent preliminary screening procedures to determine their eligibility for Part 2 of the study at the screening visit (Day −28 to Day −2 of Part 2). Subjects who took part in Part 1 of the study were permitted to take part in Part 2.
Three different regimens (G, H, and I), were used over the three periods. In Regimen G, belumosudil was administered in Tablet form (reference); and in Regimens H and I, belumosudil was administered in the form of Oral Liquid Formulation.
In Period 1, Day 1: subjects were randomized prior to administration of the first dose of IMP to 1 of 6 treatment sequences (GHI, HIG, IGH, IHG, GIH and HGI) with 3 subjects assigned to each treatment sequence. On Day 1 of each study period (periods 1, 2 and 3), subjects received the regimens in Table 36:
Regimen H was administered to subjects as a flavorless low sucralose liquid formulation in a fasted state, and Regimens G and I were administered to subjects in a fed state. Regimen G was administered with a total of 240 mL of water. For Regimens H and I, immediately after IMP administration, subjects consumed water to a total volume of 240 mL (including the dosing volume).
Subjects received a single dose of IMP in the morning of Day 1 following an overnight fast of a minimum of 10 h (Regimen H, fasted state) or following a standard breakfast (Regimens G and I, fed state). Blood samples were collected at regular intervals for PK analysis. Following administration of Regimen H, subjects completed a written taste/palatability questionnaire individually and privately.
Subjects were resident in the clinical unit for 10 consecutive nights that covered all 3 treatment periods. All subjects remained on site until 72 h post-final dose for safety and PK assessments. There was a minimum washout of 3 days between each IMP administration. To ensure the ongoing wellbeing of the subjects, a follow-up phone call took place 3 to 7 days post-final dose. If a subject reported any AEs after discharge which represented a cause for concern, they were required to attend the clinical unit for a follow-up assessment. This would have been an unscheduled visit.

[2] = cited from earlier work
[3] = particle size distribution, Sympatec Helos wet dispersion; assay type: physicochemical; conditions: 40 mg/mL in water, R3 and R5 lens
Description: Samples were assessed using the Sympatec Helos Particle Size Analyzer using the generic method for wet dispersions as outlined below: • R5 Lens and R3 Lens • Sample added until 10-15% Copt achieved • Method run producing 3 replicates (sample stirred and sonicated throughout measurement run)
Samples were assessed using the Sympatec Helos Particle Size Analyzer, with sample added until 10-15% Copt was achieved. Two different lens assemblies were used giving the following ranges for particle size assessment, R3 Lens (0.5-175 μm) and the R5 Lens (4.8-875 μm). Three replicates were performed as part of the measurement run, with the sample stirred and sonicated as part of the method.

[4] = Regimen G: 200 mg Tablet, Fed, single oral dose, healthy male volunteers, median (range)
[5] = Regimen G: 200 mg Tablet, Fed, single oral dose, geometric mean (CV%)
[6] = Regimen G: 200 mg Tablet, Fed, single oral dose, geometric mean (CV%), individual values where n <= 2
[7] = Regimen H: 200 mg Liquid Formulation, Fasted, single oral dose, healthy male volunteers, median (range)
[8] = Regimen H: 200 mg Liquid Formulation, Fasted, single oral dose, geometric mean (CV%)
[9] = Regimen H: 200 mg Liquid Formulation, Fasted, single oral dose, geometric mean (CV%), individual values where n <= 2
[10] = Regimen I: 200 mg Liquid Formulation, Fed, single oral dose, healthy male volunteers, median (range)
[11] = Regimen I: 200 mg Liquid Formulation, Fed, single oral dose, geometric mean (CV%)
[12] = Regimen I: 200 mg Liquid Formulation, Fed, single oral dose, geometric mean (CV%), individual values where n <= 2

NC(=O)COc1cccc(-c2nc(Nc3ccc4[nH]ncc4c3)c3ccccc3n2)c1 [KD025m1]
Tlag [1, 4]: 1.00 h | Tmax [1, 4]: 2.00 h | AUC (0-24) [1, 5]: 45.3 (63.9%) [n = 15] ng · h/mL | AUC (0-last) [1, 5]: 42.7 (50.7%) [n = 15] ng · h/mL | Cmax [1, 5]: 22.3 ng/mL | Lambda-z [1, 6]: 0.24 h⁻¹ and 0.38 h⁻¹ | T1/2 [1, 6]: 1.81 h and 2.88 h | Tlag [1, 7]: 0.00 (0.00-1.00) [n = 17] h | Tmax [1, 7]: 1.00 (0.500-1.50) [n = 17] h | AUC (0-24) [1, 8]: 34.9 (104.8%) [n = 12] ng · h/mL | AUC (0-last) [1, 8]: 30.3 (70.9%) [n = 12] ng · h/mL | Cmax [1, 8]: 19.0 (41.7%) [n = 17] ng/mL | Lambda-z [1, 9]: 0.26 h⁻¹ and 0.3 h⁻¹ | T1/2 [1, 9]: 2.28 h and 2.67 h | Tlag [1, 10]: 0.500 (0.00-1.00) [n = 17] h | Tmax [1, 10]: 1.50 (0.500-3.00) [n = 17] h | AUC (0-24) [1, 11]: 49.4 (83.1%) [n = 17] ng · h/mL | AUC (0-last) [1, 11]: 37.9 (53.2%) [n = 17] ng · h/mL | Cmax [1, 11]: 19.4 (27.6%) [n = 17] ng/mL | Lambda-z [1, 12]: 0.326 [n = 1] l/h | T1/2 [1, 12]: 2.128 [n = 1] h | peak (Cmax) and total exposure (AUC), liquid formulation vs tablet ([1]; listed as KD025 ml): largely similar to that of the tablet reference | food effect on exposure, fed vs fasted [1]: moderate increases in total exposure | median Tmax ([1]; single oral 200 mg as liquid formulation (fed)): 1.5 h | median Tmax ([1]; single oral 200 mg as tablet reference, fed, listed as KD025 ml): 2.00 h and 2 h

O=C(O)COc1cccc(-c2nc(Nc3ccc4[nH]ncc4c3)c3ccccc3n2)c1 [KD025m2, 2-(3-(4-(1H-indazol-5-ylamino)quinazolin-2-yl)phenoxy) acetic acid]
Tlag [1, 4]: 1.00 h | AUC % extrap [1, 5]: 5.607 (49.8%) [n = 8] | Lambda-z [1, 5]: 0.281 (43.1%) [n = 8] 1/h | Tlag [1, 7]: 0.00 h | AUC % extrap [1, 8]: 4.453 (60.7%) [n = 10] | Lambda-z [1, 8]: 0.277 (87.4%) [n = 10] 1/h | Tlag [1, 10]: 0.00 h | AUC % extrap [1, 11]: 5.388 (43.1%) [n = 10] | Lambda-z [1, 11]: 0.273 (56.5%) [n = 10] 1/h | peak (Cmax) and total exposure (AUC), liquid formulation vs tablet [1]: similar | half-life ([1]; male, human, oral, 200 mg, tablet reference 200 mg, fed, read-out: geometric mean T1/2 (converted)): 2.47 h | Tmax ([1]; male, human, po, 200 mg, Regimen G: 200 mg Tablet, Fed, single oral dose, healthy male volunteers, median (range), read-out: Tmax): 3 h | AUC(0-inf) ([1]; male, human, po, 200 mg, Regimen G: 200 mg Tablet, Fed, single oral dose, geometric mean (CV%)): 1180 ng·h/mL | half-life ([1]; male, human, po, 200 mg, Regimen G: 200 mg Tablet, Fed, single oral dose, geometric mean (CV%), individual values where n <= 2, read-out: T1/2 (converted)): 2.47 h | AUC(0-t) ([1]; male, human, po, 200 mg, Regimen G: 200 mg Tablet, Fed, single oral dose, geometric mean (CV%), read-out: AUC (0-24)): 1280 ng·h/mL | AUC(0-t) ([1]; male, human, po, 200 mg, Regimen G: 200 mg Tablet, Fed, single oral dose, geometric mean (CV%), read-out: AUC (0-last)): 1200 ng·h/mL | Cmax ([1]; male, human, po, 200 mg, Regimen G: 200 mg Tablet, Fed, single oral dose, geometric mean (CV%), read-out: Cmax): 406 ng/mL | Tmax ([1]; male, human, po, 200 mg, Regimen H: 200 mg Liquid Formulation, Fasted, single oral dose, healthy male volunteers, median (range), read-out: Tmax): 1.5 h | AUC(0-inf) ([1]; male, human, po, 200 mg, Regimen H: 200 mg Liquid Formulation, Fasted, single oral dose, geometric mean (CV%)): 1030 ng·h/mL | half-life ([1]; male, human, po, 200 mg, Regimen H: 200 mg Liquid Formulation, Fasted, single oral dose, geometric mean (CV%), individual values where n <= 2, read-out: T1/2 (converted)): 2.51 h | AUC(0-t) ([1]; male, human, po, 200 mg, Regimen H: 200 mg Liquid Formulation, Fasted, single oral dose, geometric mean (CV%), read-out: AUC (0-24)): 1130 ng·h/mL | AUC(0-t) ([1]; male, human, po, 200 mg, Regimen H: 200 mg Liquid Formulation, Fasted, single oral dose, geometric mean (CV%), read-out: AUC (0-last)): 1080 ng·h/mL | Cmax ([1]; male, human, po, 200 mg, Regimen H: 200 mg Liquid Formulation, Fasted, single oral dose, geometric mean (CV%), read-out: Cmax): 372 ng/mL | Tmax ([1]; male, human, po, 200 mg, Regimen I: 200 mg Liquid Formulation, Fed, single oral dose, healthy male volunteers, median (range), read-out: Tmax): 2 h | AUC(0-inf) ([1]; male, human, po, 200 mg, Regimen I: 200 mg Liquid Formulation, Fed, single oral dose, geometric mean (CV%)): 926 ng·h/mL | half-life ([1]; male, human, po, 200 mg, Regimen I: 200 mg Liquid Formulation, Fed, single oral dose, geometric mean (CV%), individual values where n <= 2, read-out: T1/2 (converted)): 2.54 h | AUC(0-t) ([1]; male, human, po, 200 mg, Regimen I: 200 mg Liquid Formulation, Fed, single oral dose, geometric mean (CV%), read-out: AUC (0-24)): 1180 ng·h/mL | AUC(0-t) ([1]; male, human, po, 200 mg, Regimen I: 200 mg Liquid Formulation, Fed, single oral dose, geometric mean (CV%), read-out: AUC (0-last)): 1120 ng·h/mL | Cmax ([1]; male, human, po, 200 mg, Regimen I: 200 mg Liquid Formulation, Fed, single oral dose, geometric mean (CV%), read-out: Cmax): 319 ng/mL | Tmax ([1]; male, human, po, 200 mg, single oral 200 mg as liquid formulation (fed), read-out: median Tmax): 2 h | Tmax ([1]; male, human, po, 200 mg, single oral 200 mg as tablet reference, fed, read-out: median Tmax): 3 h | food effect on exposure, fed vs fasted [1]: No notable changes

O=C([O-])c1ccccc1.[Na+] [Sodium Benzoate]
ADI ([2]; JECFA (1996)): 2-5. The JECFA (1996) has set an ADI of up to 5 mg/kg body- mg/kg body-weight

OC[C@H]1O[C@H](O[C@]2(CCl)O[C@H](CCl)[C@@H](O)[C@@H]2O)[C@H](O)[C@@H](O)[C@H]1Cl [Sucralose]
ADI ([2]; set in 2000): An ADI of up to 15 mg/kg body weight was set in 2000. In

CC(C)NC(=O)COc1cccc(-c2nc(Nc3ccc4[nH]ncc4c3)c3ccccc3n2)c1 [jet-milled belumosudil]
PSD of wet dispersion in sterile water for irrigation [3]: poor results with readings that were inconsistent between the measurement runs

CC(C)NC(=O)COc1cccc(-c2nc(Nc3ccc4[nH]ncc4c3)c3ccccc3n2)c1 [pin-milled API]
PSD of wet dispersion in sterile water for irrigation [3]: reproducibility between replicates
